The test system of test [1] is chondrocytes isolated from the cartilage of New Zealand white rabbits. As to the kind of experiment: cells. As to conditions: Oryctolagus cuniculus, Chondrocyte, read-out: IC50 values for apigenin on chondrocytes. It is filed as cell-based. As to the method:
During culturing, on Days 1, 2, 4 and 6, IC50 values were measured by a MTT assay based on cell viability.

In test [2] the test system is osteoarthritis-induced New Zealand white rabbits. As to the kind of experiment: Distribution and number of synovial cells. It is filed as in vivo. How it is done: (§1) To prepare an osteoarthritis animal model, New Zealand white rabbits underwent anterior cruciate ligament transection (ACLT) in joints of their two hind legs. After three days, the rabbits were forced to sustain movement for four weeks in a space of 5×5 m^3 to induce substantial osteoarthritis. […] The following Examples 3 to 10 were all performed using joints of the osteoarthritis-induced New Zealand white rabbits prepared as in this Example 2.
Tissues were prepared according to the same method as in Example 9 and evaluated for cell number and the condition of their surfaces. Cell number was measured at a site 120 μm in depth.

Test [3] has the same test system. As to the kind of experiment: Total joint synovial fluid volume (Arsenazo III) in osteoarthritis-induced rabbits. It is filed as in vivo.
Text: as §1
Typically, synovial fluid volume increases with inflammation as osteoarthritis progresses. […] The supernatants were used in this test.
Since synovial fluid volume has been reported to change according to the progress of osteoarthritis, total synovial fluid volume was measured to investigate changes in synovial fluids according to osteoarthritis induction and drug treatment. Synovial fluid volume was determined by measuring Ca^2+ concentrations in synovial fluids using an Arsenazo III complexion method (Michaylova V. et al., Anal. Chim. Acta, 53:194 (1971)). Total synovial fluid volume was calculated using a Donnan equilibrium equation. 0.01 ml of a synovial fluid was mixed with 1 ml of an Arsenazo III reagent (588-3, Sigma) and allowed to stand at room temperature for 5 min. Absorbance was measured at 600 nm using a spectrophotometer (DU650, Beckman).

The next test deals with RAW 264.7 cells. As to the kind of experiment: LPS-induced prostaglandin E2 production of macrophages (immunoassay). Format: cell-based, mice. To be noted: LPS alone 4156, non-treated 71. How it is done: A macrophage cell line derived from mice, RAW 264.7 (KCLB 40071), was purchased from the Korean Cell Line Bank. RAW 264.7 cells were seeded in a density of 3×10^6 cells onto 60-mm culture dishes containing DMEM (Dulbecco's Modified Eagle Medium, 12800-017, Gibco) supplemented with 10% FBS (fetal bovine serum, 26140-079, Gibco), 100 U/ml of penicillin and 100 μg/ml streptomycin (15140-122, Gibco), and cultured at 37° C. under 5% CO2 and humidity for 24 hrs. To induce NO production, RAW 264.7 cells were treated with 500 ng/ml of an E. coli cell wall component, lipopolysaccharide (LPS, […], Sigma). […] Herein, LPS was dissolved in distilled water, and apigenin was dissolved in DMSO. Then, the culture medium and a Griess reagent were mixed at a ratio of 1:1 (100 μl: 100 μl) and allowed to stand at room temperature for 10 min. Thereafter, absorbance was measured at 540 nm using a spectrophotometer (Power Wave X340, Bio-Tek). RAW 264.7 cells were treated under the same conditions as in Example 12. PGE2 levels were measured using a PGE2 immunoassay kit (DE0100, R&D Systems). 100 μl of a culture medium was allowed to react with 50 μl of a conjugate and 50 μl of an antibody in the kit for two hours, and was then allowed to react with 200 μl of a developing reagent, pNPP, for one hour. Thereafter, absorbance was measured at 405 nm using a spectrophotometer (Power Wave X340, Bio-Tek).

Test [4] relates to osteoarthritis-induced New Zealand white rabbits. As to the kind of experiment: Mankin's scoring of joints. It is filed as in vivo. To be noted: after osteoarthritis induction, scale 0 to 14; control group 12.5. As to the method: In histological tests, degenerative changes, such as structural changes of cartilage, cell number changes in cartilage and surface staining distribution by cartilage staining with a dye, were evaluated according to a standard scoring system for the progress of osteoarthritis, Mankin's scoring (Mankin, H. J. et al., Orthopedic Clinics of North America, 2:19-30 (1971)). In the present invention, blind tests were performed by two inspectors according to the Mankin's criteria.
To prepare an osteoarthritis animal model, New Zealand white rabbits underwent anterior cruciate ligament transection (ACLT) in joints of their two hind legs. After three days, the rabbits were forced to sustain movement for four weeks in a space of 5×5 m^3 to induce substantial osteoarthritis. […]
30-mm synovial tissues were sectioned from the medial parapatella synovium of knee joints of experimental animals, fixed with 10% […] (F0507, Sigma) for over 24 hrs, and embedded in paraffin to make 4-mm paraffin blocks. […] Mankin's scoring was performed by blind tests carried out by two inspectors, and Mankin scores were determined according to the degree of degenerative progress and ranged from 0 (normal in all items) to a maximum score of 14, thus calculating a degenerative change index.

The structures appear in SMILES notation. pIC50: −log10 of the molar value. Where two headings read alike, the source gives them in different places.

What is called pIC50 is the negative decadic logarithm of the IC50, by convention in mol/L. Regarding `O=c1cc(-c2ccc(O)cc2)oc2cc(O)cc(O)c12` [apigenin, 4′,5,7-trihydroxyflavone], the pIC50 was about 3.70 in test [1] (24 h), about 4.00 in test [1] (48 h), about 4.40 in test [1] (96 h) and about 4.52 in test [1] (144 h). Besides, in test [2] (after osteoarthritis induction), the “decrease in synovial cell number compared to the control group” value is “about 34.5%”. Further, the “number of synovial cells” value in test [2] (after osteoarthritis induction, measured at a site 120 μm in depth, control group 632.3) stood at 406.6. The “surface of synovial membrane section” value in test [2] (right leg, compared with control group treated with physiological saline) is given as “relatively smooth surface”. The “Total synovial fluid volume” value in test [3] (apigenin-treated right leg (+), 50 μg once per week, four weeks after drug injection) is “about 1.16 ml”; in test [3] (apigenin-treated right leg (+), 50 μg once per week, four weeks after drug injection, listed as Apigenin), 1.16 ± 0.03 mL; in test [3] (apigenin-treated right leg (+), 50 μg once per week, two weeks after drug injection), 1.13 ± 0.08 mL; in test [3] (non-treated left leg (−) of apigenin treatment group, four weeks after drug injection) it was “about 1.58 ml”; in test [3] (non-treated left leg (−) of apigenin treatment group, four weeks after drug injection, listed as Apigenin), 1.58 ± 0.24 mL; in test [3] (non-treated left leg (−) of apigenin treatment group, two weeks after drug injection), 1.17 ± 0.08 mL. Besides, the PGE2 with RAW 264.7 cells (LPS 500 ng/ml + apigenin 10 μM) turned out to be 3935 pg/mL; with RAW 264.7 cells (LPS 500 ng/ml + apigenin 20 μM), 3918 pg/mL; in the test on RAW 264.7 cells (LPS 500 ng/ml + apigenin 40 μM), 1057 pg/mL; in the test with RAW 264.7 cells (LPS 500 ng/ml + apigenin 80 μM), 300 pg/mL. Further, in test [4], the “Mankin score (mean)” value came out at 6.6.

(Values after patent US20070154540A1 (KMSI CO., LTD., priority 2003, published 2007).)
